Assay results: patent publication US9227955B2, “Compound having angiogenesis inhibitory activity, method for preparing same, and pharmaceutical composition comprising same” (Boryung Pharmaceutical Co., Ltd., priority 2011, dated 2016)
Marks after values point to notes of the source that are not given here.

Tested on: not listed separately
Assay: Cell viability MTS assay (cytotoxicity)
Format: cell-based
Conditions: human; A-431 cells, 48 hrs incubation; read-out: IC50, MTS assay for cytotoxicity against A-431
Method: A-431 ([…], human, ATCC CRL-1555™) cells grown in DMEM (Dulbeco's Modified Eagle's Medium, Gibco #11885) were seeded at a density of 1×10^4 cells/well into 96-well plates and incubated at 37° C. for 18 hrs under the supply of 5% CO2 until the cells stably adhered to the bottom. […] After incubation for 48 hrs in the presence of the test compound, the cells were assayed for viability.
The cells in each well was added with 21 μl of a mixture of 20:1 (v/v) of an MTS solution [(3-(4,5-dimethylthiazol-2-yl)-5-(3-carboxymethoxyphenyl)-2-(4-sulfophenyl)-2H-tetrazolium, Promega, Cat#65421; 2 mg/ml] and a PMS solution [Phenazine methosulfate, Sigma #P9625; 1 mg/ml], and incubated for 2 hrs, followed by measuring absorbance at 490 nm on a microplate reader (Molecular device, spectraMax M2). Relative to the control (media), viability by drug concentration was determined from the measurements of formazan, and the results are given in Table 2, below.

Structure (SMILES) | IC50 at 48 h
O=C(Nc1cccc(Cl)c1)c1cccnc1Nc1ccc(Oc2ccccc2)cc1 [Compound 104, N-(3-Chlorophenyl)-2-(4-phenoxyanilino)nicotinamide] | 28.6 µM
O=C(Nc1ccc(Oc2ccccc2)cc1)c1cccnc1NC1CCN(Cc2ccccc2)CC1 [Compound 110, 2-(1-Benzylpiperidin-4-ylamino)-N-(4-phenoxyphenyl)nicotinamide] | 22.2 µM
O=C(Nc1ccc(Oc2ccccc2)cc1)c1cccnc1Nc1ccc(Oc2ccccc2)cc1 [Compound 111, 2-(4-Phenoxyanilino)-N-(4-phenoxyphenyl)nicotinamide] | 135 µM
CC1(C)CNc2cc(NC(=O)c3cccnc3NC3CCN(Cc4ccccc4)CC3)ccc21 [Compound 117, 2-(1-Benzylpiperidin-4-ylamino)-N-(3,3-dimethyl-2,3-dihydro-1H-indol-6-yl)nicotinamide] | 91.1 µM
CC1(C)CC(Nc2ncccc2C(=O)Nc2cccc(Cl)c2)CC(C)(C)N1 [Compound 201, N-(3-Chlorophenyl)-2-(2,2,6,6-tetramethylpiperidin-4-ylamino)nicotinamide] | 54.5 µM
CC(C)(C)OC(=O)N1CCC(Nc2ncccc2C(=O)Nc2cccc(Cl)c2)CC1 [Compound 208, N-(3-Chlorophenyl)-2-(1-tert-butoxycarbamoylpiperidin-4-ylamino)nicotinamide] | 86.1 µM
O=C(Nc1cccc(Cl)c1)c1cccnc1NN1CCN(CCO)CC1 [Compound 241, N-(3-Chlorophenyl)-2-[4-(2-hydroxyethyl)piperazin-1-ylamino)nicotinamide] | 164 µM
CC1(C)CC(Nc2ncccc2C(=O)Nc2cccc(Cl)c2)CC(C)(C)N1CCO [Compound 242, N-(3-Chlorophenyl)-2-(1-(2-hydroxyethyl)-2,2,6,6-tetramethylpiperidin-4-ylamino)nicotinamide] | 81.9 µM
C=CCN1CCC(Nc2ncccc2C(=O)Nc2cccc(Cl)c2)CC1 [Compound 243] | 170 µM
CCN(CC)CCN1CCC(Nc2ncccc2C(=O)Nc2cccc(Cl)c2)CC1 [Compound 244, N-(3-chlorophenyl)-2-[1-(2-N,N-diethylamino-ethyl)piperidin-4-ylamino]nicotinamide] | 94.6 µM
O=C(Nc1cccc(Cl)c1)c1cccnc1NC1CCN(C(C(=O)O)C(=O)O)CC1 [Compound 246, 2-(4-(3-(3-Chlorophenylcarbamoyl)pyridin-2-ylamino)piperidin-1-yl)maloic acid] | 101 µM
O=C(Nc1cccc(Cl)c1)c1cccnc1NC1CCN(Cc2cccnc2)CC1 [Compound 249, N-(3-chlorophenyl)-2-[1-(pyridin-3-ylmethyl)piperidin-4-ylamino]nicotinamide] | 102 µM
O=C(Nc1cccc(Cl)c1)c1cccnc1N[C@@H]1CCCN(Cc2ccccc2)C1 [Compound 267, (R)-2-(1-benzylpiperidin-3-ylamino)-N-(3-chlorophenyl)nicotinamide] | 20.9 µM
O=C(Nc1cccc(Cl)c1)c1cccnc1N[C@@H]1CCCNC1 [Compound 269, (R)—N-(3-chlorophenyl)-2-(3-piperidylamino)nicotinamide] | 88.9 µM
O=C(Nc1cccc(Cl)c1)c1cccnc1N[C@H]1CCCN(Cc2ccccc2)C1 [Compound 273, (S)-2-(1-benzylpiperidin-3-ylamino)-N-(3-chlorophenyl)nicotinamide] | 40.9 µM
O=C(Nc1cccc(Cl)c1)c1cccnc1N[C@H]1CCCN(CCO)C1 [Compound 274, (S)—N-(3-chlorophenyl)-2-[1-(2-hydroxyethyl)piperidin-3-ylamino]nicotinamide] | 111 µM
O=C(Nc1cccc(Cl)c1)c1cccnc1N[C@H]1CCCNC1 [Compound 275, (S)—N-(3-chlorophenyl)-2-(3-piperidylamino)nicotinamide] | 94.6 µM
O=C(Nc1cccc(Cl)c1)c1cccnc1SC1CCN(Cc2ccccc2)CC1 [Compound 290, 2-(1-Benzylpiperidin-4-ylsulfanyl)-N-(3-chlorophenyl)nicotinamide] | 54.8 µM
O=C(Nc1cccc(Cl)c1)c1ccc(Cl)nc1NC1CCN(Cc2ccccc2)CC1 [Compound 301, 2-(1-Benzylpiperidin-4-ylamino)-6-chloro-N-(3-chlorophenyl)nicotinamide] | 67.6 µM
O=C(Nc1cccc(Cl)c1)c1cc(F)c(Cl)nc1NC1CCN(Cc2ccccc2)CC1 [Compound 302, 2-(1-benzylpiperidin-4-ylamino)-6-chloro-N-(3-chlorophenyl)-5-fluoronicotinamide] | 38.1 µM
O=C(Nc1cccc(Cl)c1)c1ccc(Cl)nc1NC1CCN(CCO)CC1 [Compound 311] | 62.3 µM
O=C(NC(Cc1ccccc1)c1ccccc1)c1cccnc1NC1CCN(Cc2ccccc2)CC1 (stereo not shown) [Compound 426, 2-(1-Benzylpiperidin-4-ylamino)-N-(1,2-diphenylethyl)nicotinamide] | 39.7 µM
CCCCC(CC)CNC(=O)c1cccnc1NC1CCN(Cc2ccccc2)CC1 (stereo not shown) [Compound 436, 2-(1-Benzylpiperidin-4-ylamino)-N-(2-ethylhexyl)nicotinamide] | 34 µM
COc1ccc(NC(=O)c2cccnc2NC2CCN(Cc3ccccc3)CC2)cc1OC [Compound 443, 2-(1-Benzylpiperidin-4-ylamino)-N-(3,4-dimethoxyphenyl)nicotinamide] | 140 µM
CCCCC(CC)CNC(=O)c1ccc(Cl)nc1NC1CCN(CCO)CC1 (stereo not shown) [Compound 515, 6-Chloro-N-(2-ethylhexyl)-2-[1-(2-hydroxyethyl)piperidin-4-ylamino]nicotinamide] | 23.8 µM
CCCCC(CC)CNC(=O)c1cccnc1NC1CC(C)(C)NC(C)(C)C1 (stereo not shown) [Compound 517, N-(2-ethylhexyl)-2-(2,2,6,6-tetramethylpiperidin-4-ylamino)nicotinamide] | 50.7 µM

Tested on: HUVECs (human umbelical vein endothelial cells)
Assay: Transwell assay, VEGF-induced cell migration in HUVECs
Format: cell-based
Conditions: 25 μM, 10 ng/ml VEGF 24 hrs, n=3
Method: To examine the inhibitory effect of the compounds obtained in the Examples on VEGF (Vascular endothelial growth factor)-induced cell migration in HUVECs (human umbelical vein endothelial cells), a transwell assay was performed as follows.
HUVECs, provided from ATCC (American Type Culture Collection), were incubated in EGM-2 (Endothelial growth Medium-2 Medium) including 10% FBS, penicillin (100 unit/ml) and 100 μg/ml streptomycin sulfate plus various growth factors at 37° C. in an atmosphere of 5% CO2. After the change of the medium with growth factor-free EBM-2 (Endothelial Basal Medium-2 Medium), the cells were subjected to transwell assay.
After for 24 hours, the cells were fixed for 1 min with ethanol and were stained with a dye. Cell migration was evaluated by counting cells which moved through the pores.
In addition, cells were treated with Compound No. 250 (Example 26) at various concentrations given in Table 3, and assayed for cell migration, as conducted with Compounds 103, 110, 218, 273, 275, 276, 290, 312, 428, 442, and 509. The results were compared with those obtained after non-treatment (no treat) or treatment with 10 ng/mL VEGF.
Results were expressed as average numbers (n=3) of HUVECs which moved cross the membrane. Test results are summarized in Table 3 for compounds 103, 110, 218, 273, 275, 276, 290, 312, 428, 442, and 509, and in Table 4 for compound 250.

Structure (SMILES) | No. of migration cells/field
O=C(Nc1ccc(Oc2ccccc2)cc1)c1cccnc1NC1CCN(Cc2ccccc2)CC1 [Compound 110, 2-(1-Benzylpiperidin-4-ylamino)-N-(4-phenoxyphenyl)nicotinamide] | 10*** cells/field
O=C(Nc1cccc(Cl)c1)c1cccnc1NC1CCN(CCO)CC1 [Compound 218, N-(3-Chlorophenyl)-2-[1-(2-hydroxyethyl)piperidin-4-ylamino]nicotinamide] | 7.5*** cells/field
COC(=O)c1c(NC(=O)c2cccnc2NC2CCN(Cc3ccccc3)CC2)sc2c1CCNC2 [Compound 442, 2-{[2-(1-Benzylpiperidin-4-ylamino)pyridine-3-carbonyl]amino}-4,5,6,7-tetrahydro-thieno[2,3-c]pyridine-3-carboxylic acid methyl ester] | 15*** cells/field
COC(=O)c1c(NC(=O)c2cccnc2NC2CCCN(Cc3ccccc3)C2)sc2c1CCNC2 (stereo not shown) [Compound 509, 2-{[2-(1-benzylpiperidin-3-ylamino)pyridine-3-carbonyl]amino}-4,5,6,7-tetrahydrothieno[2,3-c]pyridine-3-carboxylic acid methyl ester] | 7*** cells/field

Same assay, conditions: 50 μM, 10 ng/ml VEGF 24 hrs, n=3

Structure (SMILES) | No. of migration cells/field
O=C(Nc1cccc(Cl)c1)c1cccnc1N[C@H]1CCCN(Cc2ccccc2)C1 [Compound 273, (S)-2-(1-benzylpiperidin-3-ylamino)-N-(3-chlorophenyl)nicotinamide] | 12*** cells/field
O=C(Nc1cccc(Cl)c1)c1cccnc1N[C@H]1CCCNC1 [Compound 275, (S)—N-(3-chlorophenyl)-2-(3-piperidylamino)nicotinamide] | 11*** cells/field
CC(C)(C)OC(=O)N1CCC[C@H](Nc2ncccc2C(=O)Nc2cccc(Cl)c2)C1 [Compound 276, (S)—N-(3-chlorophenyl)-2-(1-tert-butoxycarbamoylpiperidin-3-ylamino)nicotinamide] | 12.5*** cells/field
O=C(Nc1cccc(Cl)c1)c1cccnc1SC1CCN(Cc2ccccc2)CC1 [Compound 290, 2-(1-Benzylpiperidin-4-ylsulfanyl)-N-(3-chlorophenyl)nicotinamide] | 14.5*** cells/field
